Experimental data from patent US12691186B2, “B7-H3 miniproteins, conjugates, and uses thereof” (priority 2023, dated 2026).
Bridges are numbered along the chain shown (N, C = ends). Primed or numbered codes have the meaning given here. Where no end group is shown, it is not given here. [ ]: non-standard residue; d: D form. The star is where a group is joined. DOTA = O=C(O)CN1CCN(CC(=O)O)CCN(CC(=O)*)CCN(CC(=O)O)CC1; Biotin = O=C1N[C@H]2[C@H](CS[C@H]2CCCCC(=O)*)N1; Lys(Me2) = CN(C)CCCC[C@H](N)C(=O)O; PEG4 = NCCOCCOCCOCCOCCC(=O)O; PEG4′ = not defined here

Assays:
[1] = test system: opossum kidney proximal tubule cells; test: OK-PTC uptake assay of miniprotein conjugates in presence of scaffold A decoys; type: cell-based; conditions: compound 20 μM; for % Uptake reduction in the presence of a decoy C118: 20-fold molar excess of decoy C118; for % Uptake reduction in the presence of a decoy C119: 20-fold molar excess of decoy C119; for % Uptake reduction in the presence of a decoy C120: 20-fold molar excess of decoy C120
Description: This Example describes reduction of uptake of exemplary truncated and constrained B7-H3 miniprotein conjugates (C272, C308, C234, C394, C250, and C228) when combined with exemplary scaffold A decoys (C118, C119 and C120) as compared to no decoy. Uptake of compounds was evaluated in opossum kidney proximal tubule cells (as described in Example 5). Here, cells were treated with a compound in the presence or absence of a 20-fold molar excess of exemplary scaffold A decoys, C118, C119, and C120. Results depicting uptake of six exemplary B7-H3-targeting compounds, C272, C308, C234, C394, C250, and C228, in OK-PTC cells in the presence and absence of exemplary decoys C118, C119, and C120 (scaffold A decoys) are shown in Table 13. The B7-H3-targeting compounds were used at 20 μM and the decoys used at a 20-fold (with C272, C308, C234, C394, and C250) and 10-fold (with C228) molar excess.

[2] = Thermal stability (Tm) of B7-H3 miniprotein conjugates; type: physicochemical
Description: Thermal stability was assessed for several exemplary miniprotein conjugates and reported as Tm (e.g., see Table 7A).
As compared to unconstrained sequences (e.g., as in Table 2A and shown for C211 in Table 7A), those with disulfide bonds (e.g., as in Table 2C and shown for C234, C275, C294, and C309 in Table 7A) were more thermally stable (see Table 7A), and exemplary compounds with two disulfide bridges (C234, C275, and C309) were stable at higher temperatures than an exemplary compound with one disulfide bridge (C294).

[3] = test system: >6,500 different human proteins; test: Off-target binding, cell microarray platform (Retrogenix Assay) in HEK293 cells; conditions: biotin-labeled molecules
Description: To evaluate potential off-target binding, eight biotin-labeled molecules were tested in a cell microarray platform (Charles River Lab, Retrogenix Assay) having >6,500 different human proteins spanning diverse functions and subcellular locations.
Initially, two pools of molecules were tested. Pool #1 consisted of C298, C300, C302, C304, and pool #2 consisted of C306, C308, C310, and C312 at 2 μg/mL for each molecule. To perform this assay, HEK293 cells were plated on a dish and localized spots of cells were transiently over-expressed with a cDNA encoding for one of the >6,500 targets. Included in this library were two isoforms of CD276 (B7-H3) and B7-H3 related proteins (B7-1, B7-2, B7-H1/PD-L1, and B7-H2). The molecule pools were incubated on the fixed, over-expressing cell microarrays (n=2 per protein), and binding was visualized using Alexa Fluor 647 streptavidin fluorescence. All transfection efficiencies exceeded minimum thresholds for the microarray expression targets. Preliminary interactions identified from pooled results were re-spotted in duplicates, and each of the eight compounds were tested individually (n=2) at 2 μg/mL and/or in dose response against these targets as described above to validate the interactions.
All positive control interactions were strong and passed quality control. Specific interactions observed (median SNR≥1) confirmed on-target B7-H3 binding in two different isoforms for each of the eight test molecules. These interactions with the primary target occurred after fixation and in live cells (absence of fixation). No significant additional interactions were confirmed for any test molecules outside of B7-H3, indicating high specificity for the primary target (data not shown).

[4] = In vitro metabolic stability, kidney brush border membrane (KBBM), mouse; type: in vitro ADME; conditions: 37° C.
Description: (§1) This Example describes in vitro metabolic stability of exemplary B7-H3 miniprotein conjugates.
(§2) Pharmacokinetic assessments are described in Example 18.

[5] = In vitro metabolic stability, plasma, mouse; type: in vitro ADME; conditions: 37° C.
Description: as §1, §2

[6] = test system: opossum kidney proximal tubule cells; test: Proximal tubule epithelial cell (OK cell) uptake assay relative to control C4; type: cell-based
Description: Inhibition constant (Ki) of each conjugate was measured using DELFIA as described herein.

CC[C@H](C)[C@@H]1NC(=O)[C@H](Cc2ccccc2)NC(=O)[C@H](C)NC(=O)[C@H](CCCCN(C)C)NC(=O)[C@H]([C@@H](C)CC)NC(=O)[C@H](CCC(N)=O)NC(=O)[C@H](C)NC(=O)[C@H](Cc2ccc(O)cc2)NC(=O)[C@H]([C@@H](C)O)NC(=O)[C@H](CC(C)C)NC(=O)[C@@H]2CSSC[C@@H](C(=O)N[C@@H](CO)C(N)=O)NC(=O)[C@H](CC(C)C)NC(=O)[C@H](CCC(=O)O)NC(=O)[C@H](CCCCN)NC(=O)[C@H](C)NC(=O)[C@H](CCC(=O)O)NC(=O)[C@H](CO)NC(=O)[C@H](CC(C)C)NC(=O)[C@H]([C@@H](C)CC)NC(=O)[C@H](CCC(=O)O)NC(=O)[C@H](CO)NC(=O)[C@H](CO)NC(=O)[C@H](CCC(N)=O)NC(=O)[C@H](CSSC[C@H](NC(=O)CCOCCOCCOCCOCCNC(=O)CCCC[C@@H]3SC[C@@H]4NC(=O)N[C@@H]43)C(=O)N[C@@H](C)C(=O)N[C@@H](CCCC[N+](C)(C)C)C(=O)N[C@@H](CCC(=O)O)C(=O)N[C@@H](CCCCN)C(=O)N[C@@H]([C@@H](C)CC)C(=O)N[C@@H](C)C(=O)N[C@@H](C)C(=O)N[C@@H](CC(C)C)C(=O)N[C@@H](CO)C(=O)N[C@@H](CCC(=O)O)C(=O)N[C@@H]([C@@H](C)CC)C(=O)N[C@@H]([C@@H](C)CC)C(=O)N[C@@H](Cc3c[nH]c4ccccc34)C(=O)N[C@@H](CC(C)C)C(=O)N3CCC[C@H]3C(=O)N2)NC(=O)[C@@H]2CCCN2C(=O)[C@H](CC(=O)O)NC(=O)[C@H](CC(=O)O)NC(=O)[C@H](CC(N)=O)NC(=O)[C@H](CC(C)C)NC(=O)[C@H](C)NC(=O)[C@H](C)NC1=O [Compound C234]
% Uptake reduction in the presence of a decoy C118 [1]: 86.4% | % Uptake reduction in the presence of a decoy C119 [1]: 96.2% | % Uptake reduction in the presence of a decoy C120 [1]: 96.9% | Tm (° C.) [2]: ~≥75 °C

CC[C@H](C)[C@@H]1NC(=O)[C@H](Cc2ccccc2)NC(=O)[C@H](C)NC(=O)[C@H](CCCCNC)NC(=O)[C@H]([C@@H](C)CC)NC(=O)[C@H](CCC(N)=O)NC(=O)[C@H](C)NC(=O)[C@H](Cc2ccc(O)cc2)NC(=O)[C@H]([C@@H](C)O)NC(=O)[C@H](CC(C)C)NC(=O)[C@@H]2CSSC[C@@H](C(=O)N[C@@H](CO)C(N)=O)NC(=O)[C@H](CC(C)C)NC(=O)[C@H](CCC(=O)O)NC(=O)[C@H](CCCCNC)NC(=O)[C@H](C)NC(=O)[C@H](CCC(=O)O)NC(=O)[C@H](CO)NC(=O)[C@H](CC(C)C)NC(=O)[C@H]([C@@H](C)CC)NC(=O)[C@H](CCC(=O)O)NC(=O)[C@H](CO)NC(=O)[C@H](CO)NC(=O)[C@H](CCC(N)=O)NC(=O)[C@H](CSSC[C@H](NC(=O)CCOCCOCCOCCOCCNC(=O)CCCC[C@@H]3SC[C@@H]4NC(=O)N[C@@H]43)C(=O)N[C@@H](C)C(=O)N[C@@H](CCCC[N+](C)(C)C)C(=O)N[C@@H](CCC(=O)O)C(=O)N[C@@H](CCCCN)C(=O)N[C@@H]([C@@H](C)CC)C(=O)N[C@@H](C)C(=O)N[C@@H](C)C(=O)N[C@@H](CC(C)C)C(=O)N[C@@H](CO)C(=O)N[C@@H](CCC(=O)O)C(=O)N[C@@H]([C@@H](C)CC)C(=O)N[C@@H]([C@@H](C)CC)C(=O)N[C@@H](Cc3c[nH]c4ccccc34)C(=O)N[C@@H](CC(C)C)C(=O)N3CCC[C@H]3C(=O)N2)NC(=O)[C@@H]2CCCN2C(=O)[C@H](CC(=O)O)NC(=O)[C@H](CCCCNC)NC(=O)[C@H](CC(N)=O)NC(=O)[C@H](CC(C)C)NC(=O)[C@H](CCCCNC)NC(=O)[C@H](C)NC1=O [Compound C308]
% Uptake reduction in the presence of a decoy C118 [1]: 107.9% | % Uptake reduction in the presence of a decoy C119 [1]: 108.6% | % Uptake reduction in the presence of a decoy C120 [1]: 104.5% | background binding to untransfected HEK293 cells [3]: low-background binding

C41 ({DOTA-PEG4′}-AEALYAQEKIAALSEIIWLPNLTHGQIMAFIAALNNDPSQSSELLSEAEQLNDSQAPG-OH; also: In complexed by DOTA) [Compound C41]
In vitro Stability (mouse) - KBBM [4]: >12 | In vitro Stability (mouse) - Plasma [5]: >12

C44: B7-H3 miniprotein test article of Table 5 ({DOTA-PEG4′}-YAQEKIAALSEIIWLPNLTHGQIMAFIAALNNDPSQSSELLSEALALNDSQAPG; also: In complexed by DOTA) [Compound C44]
In vitro Stability (mouse) - KBBM [4]: >12 | In vitro Stability (mouse) - Plasma [5]: >12

{Biotin-PEG4}-CAREKIAALSEIIWLPCLTYAQIKAFIAALNDDPCQSSEILSEAKELCS-NH2 (disulfide 1-35, 17-48) [Compound C284]
% Uptake of C4 [6]: 56.6%

{Biotin-PEG4}-CAREKIAALSEIIWLPCLTYAQILAFIAALNDDPCQSSEILSEAKELCS-NH2 (disulfide 1-35, 17-48) [Compound C286]
% Uptake of C4 [6]: 26%

{Biotin-PEG4}-CAREKIAALSEIIWLPCLTYAQIQAFIAALNDDPCQSSEILSEAKELCS-NH2 (disulfide 1-35, 17-48) [Compound C290]
% Uptake of C4 [6]: 17%

{Biotin-PEG4}-CAREKIAALSEIIWLPCLTYAQIVAFIAALNDDPCQSSEILSEAKELCS-NH2 (disulfide 1-35, 17-48) [Compound C291]
% Uptake of C4 [6]: 30%

{Biotin-PEG4}-CAREKIAALSEIIWLPCLTYAQI[Lys(Me2)]AFIAALNDDPCQSSEILSEAKELCS-NH2 (disulfide 1-35, 17-48) [Compound C275]
Tm (° C.) [2]: ~≥75 °C | % Uptake of C4 [6]: 3%
